We go through 22 compounds from patent publication US8148391B2 (Cephalon, Inc., priority 2006, dated 2012).

A value given as a limit tells only on which side of the number the result lay.

The target of assay [1] is T1, c-Met (cytoplasmic domain) (Homo sapiens, UniProt P08581).
T1 construct: 10 ng/mL c-Met (cytoplasmic domain, Invitrogen Corporation #PV3143); purchased Invitrogen Corporation PV3143
The experiment in a line: c-Met Kinase Assay (same methods as for ALK, with modifications). The format is biochemical. Particulars: 1 μM ATP (Km level); read-out: cMet Activity (c-Met Kinase Inhibition, IC50). In short, it runs like this:
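Wells were coated with 10 μg/mL phospholipase C-γ substrate in TBS, and reactions were started with 10 ng/mL c-Met cytoplasmic domain and run at 37° C for 15 minutes. Phosphorylated product was detected with Eu-N1-labeled PT66 antibody. IC50 values came from sigmoidal variable-slope fits of percent inhibition versus log compound concentration.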

In assay [2] the target is T2, baculovirus-expressed ALK (Homo sapiens, UniProt Q9UM73).
T2 construct: host or cells: baculovirus expression system
T2 sequence (Q9UM73 19-1620): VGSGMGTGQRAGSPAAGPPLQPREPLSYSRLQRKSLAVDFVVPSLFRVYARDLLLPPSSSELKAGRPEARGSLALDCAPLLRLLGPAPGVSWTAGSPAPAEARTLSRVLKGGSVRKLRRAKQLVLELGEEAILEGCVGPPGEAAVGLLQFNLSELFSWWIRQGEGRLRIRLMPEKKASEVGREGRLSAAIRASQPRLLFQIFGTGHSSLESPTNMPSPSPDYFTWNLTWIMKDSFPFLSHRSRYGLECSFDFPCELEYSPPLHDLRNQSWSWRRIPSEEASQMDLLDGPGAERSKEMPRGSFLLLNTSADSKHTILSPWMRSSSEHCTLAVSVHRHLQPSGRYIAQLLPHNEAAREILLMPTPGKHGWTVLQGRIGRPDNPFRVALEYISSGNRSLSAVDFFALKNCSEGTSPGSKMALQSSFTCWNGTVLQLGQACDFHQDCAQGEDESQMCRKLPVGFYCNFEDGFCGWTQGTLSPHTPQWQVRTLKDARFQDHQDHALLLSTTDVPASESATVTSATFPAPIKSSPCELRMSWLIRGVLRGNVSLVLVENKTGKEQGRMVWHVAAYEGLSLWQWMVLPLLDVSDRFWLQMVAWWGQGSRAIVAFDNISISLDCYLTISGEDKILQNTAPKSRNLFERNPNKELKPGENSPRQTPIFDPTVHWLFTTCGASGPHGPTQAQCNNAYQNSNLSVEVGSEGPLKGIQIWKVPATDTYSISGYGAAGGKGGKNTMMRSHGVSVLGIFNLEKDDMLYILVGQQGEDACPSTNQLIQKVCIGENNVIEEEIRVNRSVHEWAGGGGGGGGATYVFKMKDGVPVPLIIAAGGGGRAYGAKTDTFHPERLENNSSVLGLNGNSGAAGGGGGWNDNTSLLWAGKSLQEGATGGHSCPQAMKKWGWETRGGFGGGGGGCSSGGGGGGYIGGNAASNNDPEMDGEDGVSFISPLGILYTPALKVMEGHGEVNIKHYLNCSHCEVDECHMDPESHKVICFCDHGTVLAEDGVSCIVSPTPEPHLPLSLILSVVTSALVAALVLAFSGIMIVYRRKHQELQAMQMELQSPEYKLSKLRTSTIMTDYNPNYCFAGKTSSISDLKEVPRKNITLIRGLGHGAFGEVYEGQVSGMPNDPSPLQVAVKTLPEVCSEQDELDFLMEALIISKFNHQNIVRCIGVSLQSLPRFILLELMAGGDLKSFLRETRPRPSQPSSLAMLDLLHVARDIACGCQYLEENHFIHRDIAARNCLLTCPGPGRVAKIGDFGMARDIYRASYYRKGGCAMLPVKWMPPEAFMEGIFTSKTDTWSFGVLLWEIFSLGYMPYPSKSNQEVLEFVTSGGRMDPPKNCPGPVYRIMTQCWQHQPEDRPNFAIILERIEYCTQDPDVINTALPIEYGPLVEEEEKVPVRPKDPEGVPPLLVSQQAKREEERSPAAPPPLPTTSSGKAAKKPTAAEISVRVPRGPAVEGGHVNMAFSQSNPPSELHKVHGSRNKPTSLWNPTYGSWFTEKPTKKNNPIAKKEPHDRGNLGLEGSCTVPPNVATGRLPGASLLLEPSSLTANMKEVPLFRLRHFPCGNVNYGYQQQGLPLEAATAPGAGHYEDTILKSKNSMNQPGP
Nature of the assay: ALK Kinase Assay (ELISA-type, time-resolved fluorescence). The format is biochemical. Particulars: 1 μM ATP (Km level); read-out: ALK Activity (ALK Kinase Inhibition, IC50). In short, it runs like this: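 Substrate coating: phospholipase C-γ, 10 μg/mL in TBS. Kinase step: 30 ng/ml ALK, 15 min, 37° C. Detection and analysis: Eu-N1 PT66 antibody, with IC50 fitted as a sigmoidal variable-slope dose-response curve.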
In general terms: An ELISA detects its analyte on a solid surface through an enzyme-linked reagent.

T1 sequence (P08581 956-1390 limits assumed): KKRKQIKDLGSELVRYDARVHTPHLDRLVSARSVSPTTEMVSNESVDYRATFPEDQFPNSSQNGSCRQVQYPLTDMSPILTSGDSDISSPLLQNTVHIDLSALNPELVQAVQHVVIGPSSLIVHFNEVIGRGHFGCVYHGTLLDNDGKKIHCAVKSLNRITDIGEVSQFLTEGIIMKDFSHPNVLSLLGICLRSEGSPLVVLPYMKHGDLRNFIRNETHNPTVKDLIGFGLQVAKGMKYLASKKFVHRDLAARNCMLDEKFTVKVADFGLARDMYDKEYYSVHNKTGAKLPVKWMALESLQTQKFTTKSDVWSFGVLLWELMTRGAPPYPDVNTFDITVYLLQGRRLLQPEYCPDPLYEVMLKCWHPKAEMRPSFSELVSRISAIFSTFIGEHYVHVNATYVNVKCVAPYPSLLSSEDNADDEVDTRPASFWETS

In general, IC50 refers to the concentration that inhibits the measured activity by half. Turning to `COc1cc(N2CCOCC2)ccc1Nc1nc(Nc2ccc3c(c2)CCC(NCC(F)F)CC3)ncc1Cl` (centres unmarked) [Example 659, 5-Chloro-N*2*-[7-(2,2-difluoro-ethylamino)-6,7,8,9-tetrahydro-5H-benzocyclohepten-2-yl]-N*4*-(2-methoxy-4-morpholin-4-yl-phenyl)-pyrimidine-2,4-diamine], the IC50 in assay [1] was greater than 10 µM; in assay [2], less than 0.1 µM.
With `CNC(=O)c1ccccc1Nc1nc(Nc2ccc3c(c2)CCC(NCC(F)F)CC3)ncc1Cl` (centres unmarked) [Example 660, 2-{5-Chloro-2-[7-(2,2-difluoro-ethylamino)-6,7,8,9-tetrahydro-5H-benzocyclohepten-2-ylamino]-pyrimidin-4-ylamino}-N-methyl-benzamide], the 50% inhibitory concentration (IC50) in assay [1] and in assay [2] was less than 0.1 µM in each case.
As to `Cn1ccnc1-c1ccccc1Nc1nc(Nc2ccc3c(c2)CCC(NCC(F)F)CC3)ncc1Cl` (centres unmarked) [Example 661, 5-Chloro-N*2*-[7-(2,2-difluoro-ethylamino)-6,7,8,9-tetrahydro-5H-benzocyclohepten-2-yl]-N*4*-[2-(1-methyl-1H-imidazol-2-yl)-phenyl]-pyrimidine-2,4-diamine], the IC50 in assay [1] and in assay [2] was 0.1 to 1 µM in each case.
For `CS(=O)(=O)N[C@@H]1CCCC[C@H]1Nc1nc(Nc2ccc3c(c2)CCC(NCC(F)F)CC3)ncc1Cl` (stereo partly drawn) [Example 662, N-((1R,2R)-2-{5-Chloro-2-[7-(2,2-difluoro-ethylamino)-6,7,8,9-tetrahydro-5H-benzocyclohepten-2-ylamino]-pyrimidin-4-ylamino}-cyclohexyl)-methanesulfonamide], the IC50 in assay [1] was 0.1 to 1 µM; in assay [2], less than 0.1 µM.
Consider `COc1ccccc1Nc1nc(Nc2ccc3c(c2)CCC(NCC(F)F)CC3)ncc1Cl` (centres unmarked) [Example 663, 5-Chloro-N*2*-[7-(2,2-difluoro-ethylamino)-6,7,8,9-tetrahydro-5H-benzocyclohepten-2-yl]-N*4*-(2-methoxy-phenyl)-pyrimidine-2,4-diamine], for which the concentration for half-maximal inhibition (IC50) in assay [1] is 1 to 10 µM; in assay [2], less than 0.1 µM.
The corresponding values for `CNC(=O)c1cccc(F)c1Nc1nc(Nc2ccc3c(c2)CCC(NCC(F)F)CC3)ncc1Cl` (centres unmarked) [Example 664, 2-{5-Chloro-2-[7-(2,2-difluoro-ethylamino)-6,7,8,9-tetrahydro-5H-benzocyclohepten-2-ylamino]-pyrimidin-4-ylamino}-3-fluoro-N-methyl-benzamide] are less than 0.1 µM and less than 0.1 µM.
On the same counts, the results for `NC(=O)[C@@H]1[C@H](Nc2nc(Nc3ccc4c(c3)CCC(NCC(F)F)CC4)ncc2Cl)[C@H]2C=C[C@@H]1C2` (stereo partly drawn) [Example 665, (1S,2S,3R,4R)-3-{5-Chloro-2-[7-(2,2-difluoro-ethylamino)-6,7,8,9-tetrahydro-5H-benzocyclohepten-2-ylamino]-pyrimidin-4-ylamino}-bicyclo[2.2.1]hept-5-ene-2-carboxylic acid amide] are 0.1 to 1 µM and less than 0.1 µM.
For the compound `COc1cc(N2CCOCC2)ccc1Nc1nc(Nc2ccc3c(c2)CCCC(=O)N3C(C)C)ncc1Cl` [Example 666, 7-[5-Chloro-4-(2-methoxy-4-morpholin-4-yl-phenylamino)-pyrimidin-2-ylamino]-1-isopropyl-1,3,4,5-tetrahydro-benzo[b]azepin-2-one], the IC50 in assay [1] lay within 1 to 10 µM; in assay [2] it was 0.1 to 1 µM.
With `CC(C)N1C(=O)CCCc2cc(Nc3ncc(Cl)c(N[C@@H]4CCCC[C@H]4NS(C)(=O)=O)n3)ccc21` [Example 667, N-{(1R,2R)-2-[5-Chloro-2-(1-isopropyl-2-oxo-2,3,4,5-tetrahydro-1H-benzo[b]azepin-7-ylamino)-pyrimidin-4-ylamino]-cyclohexyl}-methanesulfonamide], the IC50 in assay [1] was 0.1 to 1 µM; in assay [2], less than 0.1 µM.
Turning to `CNC(=O)c1cccc(Nc2nc(Nc3ccc4c(c3)CCCC(=O)N4C)ncc2Cl)c1` [Example 668, 3-[5-Chloro-2-(1-methyl-2-oxo-2,3,4,5-tetrahydro-1H-benzo[b]azepin-7-ylamino)-pyrimidin-4-ylamino]-N-methyl-benzamide], the figures for the IC50 in assay [1] and in assay [2] were 1 to 10 µM and 0.1 to 1 µM, respectively.
Regarding `CC(C)N1C(=O)CCCc2cc(Nc3ncc(Cl)c(NC4C5C=CC(C5)C4C(N)=O)n3)ccc21` (centres unmarked) [Example 669, 3-[5-Chloro-2-(1-isopropyl-2-oxo-2,3,4,5-tetrahydro-1H-benzo[b]azepin-7-ylamino)-pyrimidin-4-ylamino]-bicyclo[2.2.1]hept-5-ene-2-carboxylic acid amide], the IC50 in assay [1] and in assay [2] was less than 0.1 µM each time.
Regarding `CNC(=O)c1cccc(Nc2nc(Nc3ccc4c(c3)C(C)(C)CCC(=O)N4C)ncc2Cl)c1` [Example 670, 3-[5-Chloro-2-(1,5,5-trimethyl-2-oxo-2,3,4,5-tetrahydro-1H-benzo[b]azepin-7-ylamino)-pyrimidin-4-ylamino]-N-methyl-benzamide], the IC50 is 1 to 10 µM in assay [1] and less than 0.1 µM in assay [2].
Turning to `NC(=O)[C@@H]1[C@H](Nc2nc(Nc3ccc4c(c3)CCC(N3CCOCC3)CC4)ncc2Cl)[C@H]2C=C[C@@H]1C2` (stereo partly drawn) [Example 671, (1S,2S,3R,4R)-3-[5-Chloro-2-(7-morpholin-4-yl-6,7,8,9-tetrahydro-5H-benzocyclohepten-2-ylamino)-pyrimidin-4-ylamino]-bicyclo[2.2.1]hept-5-ene-2-carboxylic acid amide], the IC50 in assay [1] and in assay [2] was less than 0.1 µM in each case.
As to `CNC(=O)c1cccc(Nc2nc(Nc3ccc4c(c3)C(C)(C)CCC(=O)N4)ncc2Cl)c1` [Example 672, 3-[5-Chloro-2-(5,5-dimethyl-2-oxo-2,3,4,5-tetrahydro-1H-benzo[b]azepin-7-ylamino)-pyrimidin-4-ylamino]-N-methyl-benzamide], the half-maximal inhibitory concentration (IC50) in assay [1] was 1 to 10 µM; in assay [2], 0.1 to 1 µM.
The corresponding values for `CNC(=O)c1cccc(Nc2nc(Nc3ccc4c(c3)CCN(CCOC)CC4)ncc2Cl)c1` [Example 673, 3-{5-Chloro-2-[3-(2-methoxy-ethyl)-2,3,4,5-tetrahydro-1H-benzo[d]azepin-7-ylamino]-pyrimidin-4-ylamino}-N-methyl-benzamide] are 1 to 10 µM and 0.1 to 1 µM.
Turning to `COc1cc(N2CCN(C)CC2)ccc1Nc1nc(Nc2ccc3c(c2)CCCC(=O)N3C(C)C)ncc1Cl` [Example 674, 7-{5-Chloro-4-[2-methoxy-4-(4-methyl-piperazin-1-yl)-phenylamino]-pyrimidin-2-ylamino}-1-isopropyl-1,3,4,5-tetrahydro-benzo[b]azepin-2-one], the IC50 in assay [1] is 1 to 10 µM; in assay [2], less than 0.1 µM.
The corresponding values for `COc1c(Nc2ncc(Cl)c(N[C@H]3[C@@H](C(N)=O)[C@@H]4C=C[C@H]3C4)n2)ccc2c1CCC(NCC(F)(F)F)CC2` (stereo partly drawn) [Example 679, (1S,2S,3R,4R)-3-{5-Chloro-2-[1-methoxy-7-(2,2,2-trifluoro-ethylamino)-6,7,8,9-tetrahydro-5H-benzocyclohepten-2-ylamino]-pyrimidin-4-ylamino}-bicyclo[2.2.1]hept-5-ene-2-carboxylic acid amide] are greater than 10 µM and less than 0.1 µM.
Turning to `COc1c(Nc2ncc(Cl)c(Nc3ccccc3S(=O)(=O)N(C)C)n2)ccc2c1CCC(NCC(F)F)CC2` (centres unmarked) [Example 683, 2-{5-Chloro-2-[7-(2,2-difluoro-ethylamino)-1-methoxy-6,7,8,9-tetrahydro-5H-benzocyclohepten-2-ylamino]-pyrimidin-4-ylamino}-N,N-dimethyl-benzenesulfonamide], the IC50 in assay [1] is greater than 10 µM; in assay [2] it was less than 0.1 µM.
`COc1c(Nc2ncc(Cl)c(Nc3ccccc3S(=O)(=O)N(C)C)n2)ccc2c1CCC(NCC(F)(F)F)CC2` (centres unmarked) [Example 684, 2-{5-Chloro-2-[1-methoxy-7-(2,2,2-trifluoro-ethylamino)-6,7,8,9-tetrahydro-5H-benzocyclohepten-2-ylamino]-pyrimidin-4-ylamino}-N,N-dimethyl-benzenesulfonamide]: the IC50 was greater than 10 µM in assay [1] and less than 0.1 µM in assay [2].
The corresponding values for `COc1c(Nc2ncc(Cl)c(Nc3ccccc3-n3cccn3)n2)ccc2c1CCC(NCC(F)F)CC2` (centres unmarked) [Example 689, 5-Chloro-N*2*-[7-(2,2-difluoro-ethylamino)-1-methoxy-6,7,8,9-tetrahydro-5H-benzocyclohepten-2-yl]-N*4*-(2-pyrazol-1-yl-phenyl)-pyrimidine-2,4-diamine] are greater than 10 µM and less than 0.1 µM.
As to `COc1c(Nc2ncc(Cl)c(Nc3ccccc3-n3cccn3)n2)ccc2c1CCC(NCC(F)(F)F)CC2` (centres unmarked) [Example 690, 5-Chloro-N*2*-[1-methoxy-7-(2,2,2-trifluoro-ethylamino)-6,7,8,9-tetrahydro-5H-benzocyclohepten-2-yl]-N*4*-(2-pyrazol-1-yl-phenyl)-pyrimidine-2,4-diamine], the half-inhibitory concentration (IC50) was greater than 10 µM in assay [1] and 0.1 to 1 µM in assay [2].
On the same counts, the results for `COCCNC1CCc2ccc(Nc3ncc(Cl)c(Nc4ccccc4S(=O)(=O)N4CCC(O)C4)n3)c(OC)c2CC1` (centres unmarked) [Example 695, 1-(2-{5-Chloro-2-[1-methoxy-7-(2-methoxy-ethylamino)-6,7,8,9-tetrahydro-5H-benzocyclohepten-2-ylamino]-pyrimidin-4-ylamino}-benzenesulfonyl)-pyrrolidin-3-ol] are 1 to 10 µM and less than 0.1 µM.
